Source: patent EP0353668A2, “Process for the preparation of N,N-bis(alkoxyalkyl) diamides of pyridine-2,4-dicarboxylic acid” (HOECHST AKTIENGESELLSCHAFT, priority 1988, dated 1990)

Assay: in vivo
Design: species or system Wistarratten
Procedure: Es wurde festgestellt, daß die Verbindungen der Formel I außergewöhnlich gute enterale Resorbierbarkeiten aufweisen. Die Resorbierbarkeit wurde an Wistarratten untersucht, denen N,N′-Bis-(2-methoxy ethyl)pyridin-2,4-dicarbonsäureamid intragastral verabreicht wurde. Der Serumspiegel sank in den ersten Stunden nach Verabreichung der Substanz ab und ereichte nach ca. 5 Stunden ein nur noch leicht abfallendes Platteau.
Weibliche Wistarratten von ca. 150 g Körpergewicht erhalten 50 mg/kg N,N′-Bis(2-methoxyethyl)pyridin-2,4-dicarbonsäurediamid mittels Schlundsonde intragastral verabreicht. Es werden nach 0; 0,25; 0,5; 1; 3; 4; 5; 6; 8 und 14 Stunden jeweils 4 Ratten narkotisiert und über die Vena Cava entblutet. Das Blut wird sofort zentrifugiert und N,N′-Bis(2-methoxyethyl)pyridin-2,4-dicarbonsäurediamid mit Ether aus dem Serum extrahiert. Nach Verdampfen des Ethers wird der Rückstand in […] Fliessmittel aufgenommen. Das Fliessmittel besteht aus 0,05 M Phosphorsäure und Acetonitril (4:1). Von dieser Probe werden 50 µl in eine HPLC-Säule injiziert. Die Detektion erfolgt bei UV 200 nm und einer Retentionszeit von 2,2 min. Die Ergebnisse sind in der Tabelle 1 und der Figur 1 dokumentiert. Tabelle 1

COCCNC(=O)c1ccnc(C(=O)NCCOC)c1 [N,N′-Bis(2-methoxyethyl)pyridin-2,4-dicarbonsäurediamid]
Zeit bis der Serumspiegel ein nur noch leicht abfallendes Platteau erreichte: ca. 5 Stunden | enterale Resorbierbarkeit: gute Resorbierbarkeit | concentration at 0.25 h (rat, po, 50 mg/kg): 38700 ng/mL | concentration at 0.5 h (rat, po, 50 mg/kg): 32400 ng/mL | concentration at 1 h (rat, po, 50 mg/kg): 15600 ng/mL | concentration at 3 h (rat, po, 50 mg/kg): 700 ng/mL | concentration at 4 h (rat, po, 50 mg/kg): 3300 ng/mL | concentration at 5 h (rat, po, 50 mg/kg): 500 ng/mL | concentration at 6 h (rat, po, 50 mg/kg): 600 ng/mL | concentration at 8 h (rat, po, 50 mg/kg): 500 ng/mL | concentration at 14 h (rat, po, 50 mg/kg): 300 ng/mL
